Laboratory results taken from BindingDB's records for doi:10.1021/jm00018a023 (Upjohn, 1995).

Biological target: T1, Dimer of Gag-Pol polyprotein [489-587] (Human immunodeficiency virus 1, UniProt P12497)
T1 construct: 489-587
Experiment: Protease Inhibition Assay
Conditions: pH 5; 22 °C
Source text: HIV-1 protease was purified and refolded from E. coli inclusion bodies. The substrate used spans the p17-p24 processing site (R-V-S-Q-N-Y-P-I-V-Q-N-K) and was derivatized with biotin and fluorescein isothiocyanate (FITC) at the amino and carboxy termini. In the presence of HIV-l protease, the substrate is rapidly cleaved into two parts. The biotinylated amino terminal fragment binds to the avidin beads while the FITC-containing carboxy1 terminal fragment is removed through the membrane. […] The bound fluorescence is obtained by processing on an IDEXX Screen Machine. Determination of Ki values with this assay requires analysis under conditions in which substrate concentration resides substantially below Km and the inhibitor concentrations greatly exceeds the Ki value and the enzyme concentration.

| Compound | Ki |
| --- | --- |
| CCC(c1cccc(C(=O)N[C@H](C(=O)NCc2ccccn2)C(C)CC)c1)c1c(O)c2ccccc2oc1=O (some centres undefined) [3-[1-(4-Hydroxy-2-oxo-2H-1-benzopyran-3-yl)propyl]-N-[2-methyl-1-[[(2-pyridinylmethyl)amino]carbonyl]butyl]benzamide] | 0.4 µM |
| CCC(c1cccc(NC(=O)CCNC(=O)OC(C)(C)C)c1)c1c(O)c2ccc(OC)cc2oc1=O (centres undefined) [4-Hydroxy-3-[1-3-[[3-[(tert-butyloxycarbonyl)amino]-1-oxopropyl]amino]phenyl]propyl]-7-methoxycoumarin] | 0.17 µM |
| CCC(c1cccc(C(=O)NCc2nc3ccccc3[nH]2)c1)c1c(O)c2ccccc2oc1=O (centres undefined) [N-(1H-1,3-benzodiazol-2-ylmethyl)-3-[1-(4-hydroxy-2-oxo-2H-chromen-3-yl)propyl]benzamide] | 4.4 µM |
| CC(C)(C)OC(=O)NCCC(=O)Nc1cccc(C(c2c(O)c3ccccc3oc2=O)C2CC2)c1 (centres undefined) [tert-butyl N-[2-({3-[cyclopropyl(4-hydroxy-2-oxo-2H-chromen-3-yl)methyl]phenyl}carbamoyl)ethyl]carbamate] | 0.086 µM |
